Measured values: patent publication US20250064945A1 (Arvinas Operations, Inc., priority 2021, published 2025)
Structures can show the parent of a compound that is named as a salt.

Experiments:
[1] = molecular target: T1, recombinant human 6×His-tagged-BRM (bromodomain-only; aa. 1377-1486) (Homo sapiens, UniProt P51531); assay: AlphaLISA competitive BRM binding assay; conditions: 7 nM 6×His-BRM, 20 nM biotinylated probe
T1 construct: (bromodomain-only; aa; 1377-1486; NP_620614); made in house; host or cells: Escherichia coli
Method: AlphaLISA Competitive BRM Binding Assay
Compounds were serially diluted in 100% DMSO in 3-fold increments. An intermediate compound plate was created at 10% DMSO in AlphaLISA buffer (50 mM Hepes, pH 7.5, 50 mM NaCl, […] Brij-35, 0.1 mg/mL BSA) and then […] of compound transferred from the intermediate plate into a white, 384-OptiPlate (Perkin Elmer, #6007290). A solution of protein (recombinant human 6×His-tagged-BRM (bromodomain-only; aa. 1377-1486; NP_620614) expressed in Escherichia coli) and biotinylated probe are mixed and pre-incubated for 10 minutes. Following incubation, […] of protein/probe solution is added to each well of the 384-OptiPlate, resulting in final assay concentration of 7 nM protein (6×His-BRM) and 20 nM biotinylated probe. Compound and protein/probe solution were incubated at room temperature for 10 minutes. […] of anti-His conjugated AlphaLISA acceptor beads (PerkinElmer #AL128M), diluted 100× in AlphaLISA buffer, were added to each well of the assay plate. This addition was followed by a 10-minute incubation at room temperature, in the dark. Lastly, […] of streptavidin donor beads (PerkinElmer #6760002), diluted 100× in AlphaLISA buffer, were added to each well of the assay plate. Final assay plate was incubated for 15 minutes before read, signal is stable up to 4 hours after donor bead addition.
Assay plates were read using an Envision® multimode microplate reader (PerkinElmer #2105-0010) using the Europium/615 nm emission filter. Data is reported as percent displacement, 100% binding is based on the average fluorescent count (FC) of zero compound column and 0% binding is based on the average fluorescent count (FC) of zero protein (His-BRM) column. Percent displacement is calculated based on the following equation:
((100% Binding FC−Compound Well FC)/(100% Binding FC−0% Binding FC))*100
Data is fit using a 4-parameter non-linear regression analysis in GraphPad Prism.

BRM = molecular target: T2, BRM (Homo sapiens, UniProt P51531); assay: Western blot / In-Cell Western screen of BRM degradation in SW1573 cells; format: cell-based; conditions: overnight (18-20 hours) treatment; for Dmax: read-out: Dmax (%) (% degraded)
T2 construct: In-Cell Western Screen of BRM Degradation in SW1573 Cells; endogenous in cells; host or cells: SW1573 cells
Outline: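 SW1573 cells treated overnight (18-20 hours) with compound at 0.1% final DMSO. BRM measured either by Western blot of RIPA lysates with alpha-tubulin control and chemiluminescent detection, or by In-Cell Western on fixed, permeabilized cells with LI-COR dual-channel read against alpha-tubulin; Dmax and DC50 derived.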

| Kd [1] [nM] | SMILES | DC50 (BRM) [nM] | Dmax (BRM) [%] |
| --- | --- | --- | --- |
| ≥ 10000 | Nc1cc(C#Cc2ccncc2)n2cc(-c3ccccc3O)nc2n1 [BRM9] |  |  |
| 2500 to 10000 | COC/C=C/c1cnc2nc(-c3ccccc3O)cn2c1 [BRM17, 2-[6-[(E)-3-methoxyprop-1-enyl]imidazo[1,2-a]pyrimidin-2-yl]phenol] |  |  |
| < 500 | COCCOCC#Cc1cn2cc(-c3ccccc3O)nc2nc1N [BRM13] |  |  |
| ≥ 10000 | C#Cc1cnc2nc(-c3ccccc3O)cn2c1 [BRM12] |  |  |
| 500 to 2500 | CN1CCN(c2cnc3nc(-c4ccccc4O)cn3c2)CC1 [BRM14, 2-[6-(4-methylpiperazin-1-yl)imidazo[1,2-a]pyrimidin-2-yl]phenol] |  |  |
| < 500 | COC/C=C/c1cn2cc(-c3ccccc3O)nc2nc1N [BRM19, 2-[7-amino-6-[(E)-3-methoxyprop-1-enyl]imidazo [1,2-a]pyrimidin-2-yl]phenol] |  |  |
| < 500 | Cn1cc(-c2cn3cc(-c4ccccc4O)nc3nc2N)cn1 [BRM18, 2-[7-amino-6-(1-methylpyrazol-4-yl)imidazo[1,2-a]pyrimidin-2-yl]phenol] |  |  |
| 500 to 2500 | Cn1cc(-c2cnc3nc(-c4ccccc4O)cn3c2)cn1 [BRM16, 2-[6-(1-methylpyrazol-4-yl)imidazo[1,2-a]pyrimidin-2-yl] phenol] |  |  |
| ≥ 10000 | Cn1cc(-c2cc(N)nc3nc(-c4ccccc4O)cn23)cn1 [BRM8] |  |  |
| ≥ 10000 | Oc1ccccc1-c1cn2cc(C#Cc3ccncc3)cnc2n1 [BRM11] |  |  |

The next lines start with the compound.

| SMILES | Kd [1] [nM] | DC50 (BRM) [nM] | Dmax (BRM) [%] |
| --- | --- | --- | --- |
| C#Cc1cc(N)nc2nc(-c3ccccc3O)cn12 [BRM6] | 2500 to 10000 |  |  |
| C#Cc1cn2cc(-c3ccccc3O)nc2nc1N [BRM3] | < 500 |  |  |
| CN1C2CCC1CN(c1cc(N)nc3nc(-c4ccccc4O)cn13)C2 [BRM10] | ≥ 10000 |  |  |
| Oc1ccn2cc(-c3ccccc3O)nc2n1 [BRM4, 2-(2-hydroxyphenyl) imidazo[1,2-a]pyrimidin-7-ol trifluoroacetate] | ≥ 10000 |  |  |
| Nc1ccn2cc(-c3ccccc3O)nc2n1 [BRM2] | < 500 |  |  |
| Nc1nc2nc(-c3ccccc3O)cn2cc1C#Cc1ccncc1 [BRM5] | 2500 to 10000 |  |  |
| CC(C)[C@@H](C(=O)N1C[C@H](O)C[C@H]1C(=O)N[C@@H](C)c1ccc(-c2ccnn2C)cc1)c1cc(N2CCC(CN3CCC(O[C@H]4C[C@H](N5CCC(C/C=C/c6cn7cc(-c8ccccc8O)nc7nc6N)CC5)C4)CC3)CC2)no1 [Compound 44, (2S,4R)-4-hydroxy-N-[(1S)-1-[4-(1-methyl-1H-pyrazol-5-yl)phenyl]ethyl]-1-[(2R)-3-methyl-2-{3-[4-({4-[(1r,3r)-3-{4-[(2E)-3-[7-amino-2-(2-hydroxyphenyl)imidazo[1,2-a]pyrimidin-6-yl]prop-2-en-1-yl]piperidin-1-yl}cyclobutoxy]piperidin-1-yl}methyl)piperidin-1-yl]-1,2-oxazol-5-yl}butanoyl]pyrrolidine-2-carboxamide] |  | < 2.5 | > 75 |
| Cc1ncsc1-c1ccc([C@H](C)NC(=O)[C@@H]2C[C@@H](O)CN2C(=O)[C@@H](c2cc(N3CCC(CN4CCC(O[C@H]5C[C@@H](N6CCC(CC#Cc7cn8cc(-c9ccccc9O)nc8nc7N)CC6)C5)CC4)CC3)no2)C(C)C)cc1 [Compound 36, formate] |  | < 2.5 | > 75 |
| CN1CCN(c2cc(N)nc3nc(-c4ccccc4O)cn23)CC1 [BRM7] | ≥ 10000 |  |  |
| Cc1ncsc1-c1ccc([C@H](C)NC(=O)[C@@H]2C[C@@H](O)CN2C(=O)[C@@H](c2cc(N3CCC(CN4CCC(O[C@H]5C[C@H](N6CCC(CN7CCN(c8cc(-c9ccccc9O)nnc8N)CC78COC8)CC6)C5)CC4)CC3)no2)C(C)C)cc1 [Compound 13, (2S,4R)-4-hydroxy-N-[(1S)-1-[4-(4-methyl-1,3-thiazol-5-yl)phenyl]ethyl]-1-[(2R)-3-methyl-2-{3-[4-({4-[(1r,3r)-3-[4-({8-[3-amino-6-(2-hydroxyphenyl)pyridazin-4-yl]-2-oxa-5,8-diazaspiro[3.5]nonan-5-yl}methyl)piperidin-1-yl]cyclobutoxy]piperidin-1-yl}methyl)piperidin-1-yl]-1,2-oxazol-5-yl}butanoyl]pyrrolidine-2-carboxamide] |  | < 2.5 | > 75 |
| Cc1ncsc1-c1ccc([C@H](C)NC(=O)[C@@H]2C[C@@H](O)CN2C(=O)[C@@H](c2cc(OCCCC#Cc3cn4cc(-c5ccccc5O)nc4nc3N)no2)C(C)C)cc1 [Compound 31, (2S,4R)-1-[(2R)-2-[3-[5-[7-amino-2-(2-hydroxyphenyl)imidazo[1,2-a]pyrimidin-6-yl]pent-4-ynoxy]isoxazole-5-yl]-3-methyl-butanoyl]-4-hydroxy-N-[(1S)-1-[4-(4-methylthiazol-5-yl)phenyl]ethyl]pyrrolidine-2-carboxamide] |  | ≥ 30 |  |
| Oc1ccccc1-c1cn2cccnc2n1 [BRM1] | 500 to 2500 |  |  |
| Cc1ncsc1-c1ccc([C@H](C)NC(=O)[C@@H]2C[C@@H](O)CN2C(=O)[C@@H](c2cc(N3CCC(CN4CCC5(CC4)CC(N4CCO[C@@H](CN6CC7(CCN(c8cc(-c9ccccc9O)nnc8N)CC7)C6)C4)C5)CC3)no2)C(C)C)cc1 [Compound 18, (2S,4R)-1-[(2R)-2-{3-[4-({2-[(2S)-2-({7-[3-amino-6-(2-hydroxyphenyl)pyridazin-4-yl]-2,7-diazaspiro[3.5]nonan-2-yl}methyl)morpholin-4-yl]-7-azaspiro[3.5]nonan-7-yl}methyl)piperidin-1-yl]-1,2-oxazol-5-yl}-3-methylbutanoyl]-4-hydroxy-N-[(1S)-1-[4-(4-methyl-1,3-thiazol-5-yl)phenyl]ethyl]pyrrolidine-2-carboxamide] |  | 10 to 30 | > 75 |
| Cc1ncsc1-c1ccc([C@H](C)NC(=O)[C@@H]2C[C@@H](O)CN2C(=O)[C@@H](c2cc(N3CCC(CN4CCC(O[C@H]5C[C@H](n6cc(CN7C8CCC7CN(c7cc(-c9ccccc9O)nnc7N)C8)cn6)C5)CC4)CC3)no2)C(C)C)cc1 [Compound 12, (2S,4R)-4-hydroxy-N-[(1S)-1-[4-(4-methyl-1,3-thiazol-5-yl)phenyl]ethyl]-1-[(2R)-3-methyl-2-{3-[4-({4-[(1r,3r)-3-[4-({3-[3-amino-6-(2-hydroxyphenyl)pyridazin-4-yl]-3,8-diazabicyclo[3.2.1]octan-8-yl}methyl)-1H-pyrazol-1-yl]cyclobutoxy]piperidin-1-yl}methyl)piperidin-1-yl]-1,2-oxazol-5-yl}butanoyl]pyrrolidine-2-carboxamide] |  | 2.5 to 10 | > 75 |
| Cc1ncsc1-c1ccc([C@H](C)NC(=O)[C@@H]2C[C@@H](O)CN2C(=O)[C@@H](c2cc(N3CCC(CN4CCC(O[C@H]5C[C@H](Oc6cc(N7C[C@@H]8CN(c9cc(-c%10ccccc%10O)nnc9N)C[C@@H]8C7)ccn6)C5)CC4)CC3)no2)C(C)C)cc1 [Compound 7, (2S,4R)-4-hydroxy-N-[(1S)-1-[4-(4-methyl-1,3-thiazol-5-yl)phenyl]ethyl]-1-[(2R)-3-methyl-2-{3-[4-({4-[(1r,3r)-3-({4-[(3aR,6aS)-5-[3-amino-6-(2-hydroxyphenyl)pyridazin-4-yl]-octahydropyrrolo[3,4-c]pyrrol-2-yl]pyridin-2-yl}oxy)cyclobutoxy]piperidin-1-yl}methyl)piperidin-1-yl]-1,2-oxazol-5-yl}butanoyl]pyrrolidine-2-carboxamide] |  | < 2.5 | > 75 |
| CN1CC2CCC(C1)N2c1cnc2nc(-c3ccccc3O)cn2c1 [BRM15, 2-[6-(3-methyl-3,8-diazabicyclo[3.2.1]octan-8-yl)imidazo[1,2-a]pyrimidin-2-yl] phenol] | 2500 to 10000 |  |  |
